# Tested on: Rattus norvegicus
# Assay: Antihyperglycemic activity in sucrose loaded albino Sprague-Dawley rat model assessed as improvement of glucose tolerance by measuring reduction in glucose AUC at 100 mg/kg, po administered 30 mins prior to sucrose load measured for 2 hrs by oral sucrose tolerance test
# Type: functional
# Design: scale not given: the % may be the effect or the level left
row,Structure (SMILES),Activity [%]
1,O=C(O)CC1S/C(=N\N=C/c2cn(-c3ccccc3)nc2-c2ccc(Br)cc2)NC1=O (configuration not stated),5.69
2,O=C(O)CC1S/C(=N\N=C/c2cn(-c3ccccc3)nc2-c2ccc(O)cc2)NC1=O (configuration not stated),7.97
3,O=C(O)CC1S/C(=N\N=C/c2cn(-c3ccccc3)nc2-c2ccc(F)cc2)NC1=O (configuration not stated),7.64
4,COc1ccc(-c2nn(-c3ccccc3)cc2/C=N\N=C2\NC(=O)C(CC(=O)O)S2)cc1 (configuration not stated),6.97
5,CN(C)C(=N)NC(=N)N [METFORMIN],14.1
6,O=C(O)CC1S/C(=N\N=C/c2cn(-c3ccccc3)nc2-c2ccc([N+](=O)[O-])cc2)NC1=O (configuration not stated),7.57
7,Cc1ccc(-c2nn(-c3ccccc3)cc2/C=N\N=C2\NC(=O)C(CC(=O)O)S2)cc1 (configuration not stated),6.09

# From ChEMBL document CHEMBL3286142, “Synthesis and antihyperglycemic evaluation of new 2-hydrazolyl-4-thiazolidinone-5-carboxylic acids having pyrazolyl pharmacophores” (2014)
